Literature values as cited in patent US20030031651A1, “Methods and reagents for cell transplantation” (priority 2001, published 2003).

Tested on: BMSCs
Conditions: BMSCs exposed to 5-azacytidine

## Nc1ncn([C@@H]2O[C@H](CO)[C@@H](O)[C@H]2O)c(=O)n1 [5-azacytidine]
  c-abl and interleukin-6 transcripts: rapidly upregulate
  expression of collagen I: downregulating
